What was measured:
CCR2B = target: T1, CCR2B (Homo sapiens, UniProt P41597); assay: Chemotaxis assay for receptor specificity, HEK293-CCR2B; format: cell-based; conditions: compound as chemoattractant in lower chamber, 0.2, 1, 5, 25 μM
T1 construct: expressed in transfected cells; host or cells: HEK293, pcDB-CCR2B plasmid made in the authors' laboratory
T1 sequence (P41597 1-360 isoform P41597-2): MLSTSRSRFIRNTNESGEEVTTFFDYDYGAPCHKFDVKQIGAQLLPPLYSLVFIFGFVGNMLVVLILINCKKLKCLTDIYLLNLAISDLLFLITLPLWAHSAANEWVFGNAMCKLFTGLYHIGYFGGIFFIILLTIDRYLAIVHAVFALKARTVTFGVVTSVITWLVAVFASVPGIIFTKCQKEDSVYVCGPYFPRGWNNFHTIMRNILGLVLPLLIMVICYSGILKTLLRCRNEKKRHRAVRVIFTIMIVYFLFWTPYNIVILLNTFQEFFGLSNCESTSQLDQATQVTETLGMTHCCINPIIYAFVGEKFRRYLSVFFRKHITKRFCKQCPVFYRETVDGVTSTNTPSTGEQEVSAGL
Experimental: (§1) HEK293 cells were transfected with different chemokine receptors. Compound 8a with DMSO was diluted to 0.2 mM, 1 mM, 5 mM and 25 mM, and then we used RPMI 1640 medium containing 0.1% BSA for dilution. The final concentration is: 0.2 μM, 1 μM, 5 μM and 25 μM. DMSO was also diluted 1000-fold with 0.1% BSA RPMI 1640 medium. Chemokines was also diluted to an appropriate concentration. The dilutions of Compound 8a, 1‰ DMSO, the corresponding chemokines of different receptors and 0.1% BSA RPMI 1640 medium were placed in the lower chambers (27.5 μl/well). The transfected HEK293 cells were resuspended in the same medium at a density of 1 × 10^6 cells/ml and added to the upper chambers (55 μl/well).

IL-4 = IL-4 in lung homogenate by ELISA in OVA-induced asthmatic mice; format: in vivo, BALB/c mice; conditions: 5 mg inhaled aerosol; after OVA challenge
Experimental: (§2) Male BALB/c 6 week old mice were purchased from the Experimental Animal Center of Zhejiang University. All mice were raised in a specific pathogen-free animal facility. All animal experiments were carried out according to the guidelines for the care and use of laboratory animals and were approved by the ethics committee of Zhejiang University and Peking University, China.
(§3) Mice were sensitized and challenged with chicken egg OVA (sigma-Aldrich, St Louis, MO, USA) as described in details previously. Briefly, after sensitized by intraperitoneal injection of 100 μl (80 μg) OVA in 100 μl alum (Pierce, Rockford, IL, USA) on days 0 and 14, mice were exposure to 1% OVA aerosols for 40 min on days 24–26. Control mice were injected intraperitoneally with saline and exposed to saline aerosols.
(§4) Compound 8a was dissolved in saline with DMSO (0.5%). Half an hour before each OVA challenge, the groups of mice treated with various doses of compound 8a (0.2, 1, 5 mg) inhaled aerosolized compound 8a for 45 min on days 24–26. […]
Twenty-four hours after the last challenge, lungs were removed from control or asthmatic mice, and they were cut into pieces and homogenized in 500 μl PBS, centrifuged (2000 rpm, 10 min) and the supernatant collected. The concentration of IL-4 in lungs were determined by ELISA kit (Sensitivity: 2 pg/ml, R&D Systems, Minneap-olis, MN, USA) following the manufacturer’s protocol.

CCR6 = target: T2, CCR6 (Homo sapiens, UniProt P51684); assay: Chemotaxis inhibition assay for receptor specificity, HEK293-CCR6; format: cell-based; conditions: 0.2, 1, 5, 25 μM, 30 min pretreatment
T2 construct: expressed in transfected cells; host or cells: HEK293, pcDI-CCR6 plasmid made in the authors' laboratory
T2 sequence (P51684 1-374): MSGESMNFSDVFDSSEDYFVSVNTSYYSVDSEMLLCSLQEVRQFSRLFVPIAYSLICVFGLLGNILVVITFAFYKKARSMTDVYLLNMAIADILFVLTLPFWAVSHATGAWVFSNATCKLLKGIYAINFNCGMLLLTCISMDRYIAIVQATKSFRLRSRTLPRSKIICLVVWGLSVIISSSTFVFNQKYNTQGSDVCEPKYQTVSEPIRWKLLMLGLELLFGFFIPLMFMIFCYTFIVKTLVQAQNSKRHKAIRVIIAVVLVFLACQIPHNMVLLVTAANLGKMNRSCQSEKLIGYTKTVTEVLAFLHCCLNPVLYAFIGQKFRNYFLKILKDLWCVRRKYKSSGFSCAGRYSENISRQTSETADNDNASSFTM
Experimental: HEK293 cells were transfected with different chemokine receptors. The corresponding chemokines of different receptors were placed in the lower chambers. The transfected cells were pretreated with different concentrations of Compound 8a or 1‰ DMSO for 30 min at a density of 1 × 10^6 cells/ml and added to the upper chambers, the final concentration of the compound is: 0.2 μM, 1 μM, 5 μM, and 25 μM, respectively.

CXCR4 = target: T3, CXCR4 (Homo sapiens, UniProt P61073); assay: Chemotaxis assay for receptor specificity, HEK293-CXCR4; format: cell-based; conditions: compound as chemoattractant in lower chamber, 0.2, 1, 5, 25 μM
T3 construct: expressed in transfected cells; host or cells: HEK293; plasmid from Chinese National Human Genome Center
Experimental: as §1

CXCR3 = target: T4, CXCR3 (Homo sapiens, UniProt P49682); assay: Chemotaxis assay for receptor specificity, HEK293-CXCR3; format: cell-based; conditions: compound as chemoattractant in lower chamber, 0.2, 1, 5, 25 μM
T4 construct: expressed in transfected cells; host or cells: HEK293; plasmid from Chinese National Human Genome Center
T4 sequence (P49682 1-415 isoform P49682-2): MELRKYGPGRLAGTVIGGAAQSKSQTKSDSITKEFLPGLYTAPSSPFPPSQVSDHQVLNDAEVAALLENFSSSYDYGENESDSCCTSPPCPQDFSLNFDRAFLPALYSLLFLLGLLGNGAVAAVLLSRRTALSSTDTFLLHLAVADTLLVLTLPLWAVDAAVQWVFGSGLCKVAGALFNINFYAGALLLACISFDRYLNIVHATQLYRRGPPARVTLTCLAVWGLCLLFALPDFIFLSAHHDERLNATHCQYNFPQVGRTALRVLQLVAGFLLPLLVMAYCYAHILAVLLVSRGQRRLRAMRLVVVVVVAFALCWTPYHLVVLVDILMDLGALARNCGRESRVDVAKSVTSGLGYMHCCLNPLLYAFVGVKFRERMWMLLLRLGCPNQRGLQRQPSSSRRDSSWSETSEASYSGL
Experimental: as §1

[1] = system: OVA-induced asthmatic mice; assay: Airway mucus production (PAS staining) in OVA-induced asthmatic mice; format: in vivo, BALB/c mice; conditions: compound 8a 0.2, 1, 5 mg; budesonide 5 mg; vs vehicle treated group
Experimental: as §2, §3
as §4, with “24–26. Compound 8a aerosols were produced by using a Plexiglas chamber and ultrasonic nebulizer.” for “24–26.”
After sacrificed, the lungs were fixed in formalin overnight. […] Inflammation was scored according to published guidelines. And PAS-stained goblet cells in airway epithelium were quantified as described previously.

T3 sequence (P61073 1-356 isoform P61073-2): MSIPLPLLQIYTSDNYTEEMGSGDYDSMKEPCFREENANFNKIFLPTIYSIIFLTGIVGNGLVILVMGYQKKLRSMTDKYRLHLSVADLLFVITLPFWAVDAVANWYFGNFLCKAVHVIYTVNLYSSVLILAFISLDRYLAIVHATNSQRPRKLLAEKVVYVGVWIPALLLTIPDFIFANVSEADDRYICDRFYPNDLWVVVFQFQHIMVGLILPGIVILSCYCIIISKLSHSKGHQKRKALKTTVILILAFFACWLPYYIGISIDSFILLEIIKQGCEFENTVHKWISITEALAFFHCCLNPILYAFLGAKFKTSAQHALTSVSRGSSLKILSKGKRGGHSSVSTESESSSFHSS

## O=C(C1CCCCN1)N1CCN(c2nc(Cl)cc(NCc3ccc(Cl)cc3Cl)n2)CC1 (stereo not drawn) [compound 8a, {4-[4-Chloro-6-(2,4-dichloro-benzylamino)-pyrimidin-2-yl]-piperazin-1-yl}-piperidin-2-yl-methanone]
CCR2B
  chemotaxis effect of the compound on HEK293-CCR2B: didn’t exert chemotaxis effects
IL-4
  expression of IL-4 in lungs (ELISA): notably decreased
CCR6
  inhibition of chemotaxis of HEK293-CCR6 to its ligand: few influence
CXCR4
  chemotaxis effect of the compound on HEK293-CXCR4: didn’t exert chemotaxis effects
CXCR3
  chemotaxis effect of the compound on HEK293-CXCR3: didn’t exert chemotaxis effects
[1]
  airway mucus production (PAS-stained cells): no difference
